The numbers were not newly measured in article PMC8319603, “Developing C2-Aroyl Indoles as Novel Inhibitors of IDO1 and Understanding Their Mechanism of Inhibition via Mass Spectroscopy, QM/MM Calculations and Molecular Dynamics Simulation” (Frontiers in Chemistry, 2021), which cites them from elsewhere.

Where two headings read alike, the source gives them in different places.

The test system of one series is hIDO1. The note with it: 2017, cited from earlier work.
Another series relates to HeLa. The note with it: Figure 1; ref Prendergast et al., 2017; cited from earlier work.
A further series has as its system SKOV3. Also on record: method as in Siu et al., 2017; Wen et al., 2019. The conditions noted are these: Figure 1; ref Siu et al., 2017; Wen et al., 2019; cited from earlier work.

Consider `NS(=O)(=O)NCCNc1nonc1C(=NO)Nc1ccc(F)c(Br)c1` [1b], for which the IC50 in the series on hIDO1 (ref Prendergast et al., read-out: IC50 against IDO1) is […]; in the series on HeLa, 0.0015 µM.

In the case of `O=C1CC(c2c[nH]c3ccc(F)cc23)C(=O)N1` (centres unmarked) [1d], the IC50 is […] in the series on hIDO1 (Figure 1, ref Siu et al., Wen et al., 2019, read-out: IC50 (IDO1)) and 0.07 µM with SKOV3.

`C[C@@H](C(=O)Nc1ccc(Cl)cc1)C1CCC(c2ccnc3ccc(F)cc23)CC1` (some centres unmarked) [1e]: the IC50 in the series on SKOV3 was 0.0034 µM.
